# Data as given in patent publication US9440969B2, “Compounds and methods for kinase modulation, and indications therefor” (PLEXXIKON INC., priority 2009, dated 2016).
# Tests used:
# c-Raf-1 = c-Raf-1 (Homo sapiens, UniProt P04049); test: c-Raf-1 kinase activity assay (AlphaScreen, biotin-MEK1 substrate); settings: 100 μM ATP, 100 nM biotin-MEK1, 45 minutes at room temperature; read-out: Biochemical activity (IC50 μM) c-Raf-1
# In short: (§1)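 Each Raf enzyme (0.1 ng) phosphorylates 100 nM biotin-MEK1 in pH 7.0 HEPES with Mg2+/Mn2+, 100 μM ATP final, 45 min at room temperature. Phospho-MEK1/2 antibody with AlphaScreen beads is read after 3 h. IC50 comes from an 8-point dilution series.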
# CYP2C19 = CYP2C19 (Homo sapiens, UniProt P33261); test: CYP2C19 inhibition (fluorescent substrate CEC); assay type: in vitro ADME; settings: read-out: Cyp IC50 (μM) 2C19
# CYP2C19, sequence (P33261 whole entry): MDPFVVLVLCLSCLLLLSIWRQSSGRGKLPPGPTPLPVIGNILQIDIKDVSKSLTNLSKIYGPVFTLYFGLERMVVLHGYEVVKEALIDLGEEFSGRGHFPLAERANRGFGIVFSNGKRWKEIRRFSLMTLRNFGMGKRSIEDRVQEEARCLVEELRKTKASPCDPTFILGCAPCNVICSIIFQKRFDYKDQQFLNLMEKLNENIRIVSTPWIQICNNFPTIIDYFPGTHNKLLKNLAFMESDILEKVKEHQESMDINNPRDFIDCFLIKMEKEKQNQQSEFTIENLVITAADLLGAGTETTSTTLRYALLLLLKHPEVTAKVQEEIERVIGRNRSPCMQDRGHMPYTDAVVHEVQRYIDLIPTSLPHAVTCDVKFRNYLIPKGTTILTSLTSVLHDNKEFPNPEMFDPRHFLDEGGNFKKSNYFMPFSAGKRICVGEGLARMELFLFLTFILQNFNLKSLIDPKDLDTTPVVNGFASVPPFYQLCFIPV
# Experimental: (§2) CYP (Cytochrome P450) enzymes are the major drug metabolizing enzymes present in the liver. The inhibition of CYP enzyme activity (IC50) for each of CYP1A2, CYP2C19, CYP2C9, CYP2D6, CYP3A4(BFC) and CYP3A4(BQ) is determined for compounds, where inhibition of metabolism of a known substrate leads to a decrease in the fluorescence of the metabolized product. The fluorescence of the product is monitored as a function of compound concentration. Compounds are dissolved in dimethyl sulfoxide to a concentration of 100 mM. These are diluted […], into 82 μL of acetonitrile. An 11 μL aliquot of this solution is then added to 204 μL of cofactor mix (1.3% NADPH Regeneration system Solution A, 1.04% NADPH Regeneration system Solution B from BD Biosciences, 5% acetonitrile and 0.05% dimethyl sulfoxide). These are then serially diluted 1:1 (160 μL to 160 μL co-factor mix) for a total of 10 points. A 10 μL aliquot of this final mixture is dispensed into 384 well assay plates and incubated for 10 minutes at 37° C. Enzyme and substrate mix (10 μL; 0.5 pmol CYP1A2/5 μM CEC; 1.0 pmol CYP2C9/75 μM MFC; 0.5 pmol CYP2C19/25 μM CEC; 1.5 pmol CYP2D6/1.5 μM AMMC; 1.0 pmol CYP3A4/50 μM BFC; or 1.0 pmol CYP3A4/40 μM BQ) is added to these assay plates. Assay plates are incubated at 37° C. (CYP1A2-15 min; CYP2C9-45 min; CYP2C19, 2D6 and 3A4-30 min) and read in a Tecan Safire 2 plate reader (CYP1A2, 2C19 and 3A4 409 ex/460 em; CYP2C9 and 2D6 409 ex/530 em). The signal versus compound concentration is used to determine the IC50. The enzymes and substrates for this assay are obtained from BD Biosciences.
# B-Raf V600E = B-Raf V600E (Homo sapiens, UniProt P15056, V600E); test: B-Raf V600E kinase activity assay (AlphaScreen, biotin-MEK1 substrate); settings: 100 μM ATP, 100 nM biotin-MEK1, 45 minutes at room temperature, read-out: Biochemical activity (IC50 μM) V600E
# B-Raf V600E, sequence (P15056 whole entry V600E): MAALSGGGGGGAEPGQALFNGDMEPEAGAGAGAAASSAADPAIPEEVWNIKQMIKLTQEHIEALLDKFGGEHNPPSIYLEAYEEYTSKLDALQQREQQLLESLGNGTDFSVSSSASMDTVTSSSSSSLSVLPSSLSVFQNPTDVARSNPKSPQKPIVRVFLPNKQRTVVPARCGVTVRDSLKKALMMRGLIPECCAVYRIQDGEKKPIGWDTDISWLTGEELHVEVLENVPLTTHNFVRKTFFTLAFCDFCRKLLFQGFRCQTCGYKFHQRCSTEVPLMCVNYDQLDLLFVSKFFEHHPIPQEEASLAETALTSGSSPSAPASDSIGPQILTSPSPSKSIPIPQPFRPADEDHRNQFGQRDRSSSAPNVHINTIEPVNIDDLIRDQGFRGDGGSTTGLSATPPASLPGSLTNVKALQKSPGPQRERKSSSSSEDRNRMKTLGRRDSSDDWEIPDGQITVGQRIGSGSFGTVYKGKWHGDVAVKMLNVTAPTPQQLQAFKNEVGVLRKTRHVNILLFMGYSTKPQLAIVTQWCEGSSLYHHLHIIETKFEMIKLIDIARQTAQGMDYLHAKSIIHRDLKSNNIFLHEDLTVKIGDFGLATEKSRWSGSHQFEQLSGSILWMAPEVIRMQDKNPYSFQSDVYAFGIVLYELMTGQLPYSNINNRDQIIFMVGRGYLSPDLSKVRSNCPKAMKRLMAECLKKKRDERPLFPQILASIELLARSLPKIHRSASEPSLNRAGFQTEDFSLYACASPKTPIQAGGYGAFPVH
# In short: as §1
# CYP2C9 = CYP2C9 (Homo sapiens, UniProt P11712); test: CYP2C9 inhibition (fluorescent substrate MFC); assay type: in vitro ADME; settings: read-out: Cyp IC50 (μM) 2C9
# CYP2C9, sequence (P11712 whole entry): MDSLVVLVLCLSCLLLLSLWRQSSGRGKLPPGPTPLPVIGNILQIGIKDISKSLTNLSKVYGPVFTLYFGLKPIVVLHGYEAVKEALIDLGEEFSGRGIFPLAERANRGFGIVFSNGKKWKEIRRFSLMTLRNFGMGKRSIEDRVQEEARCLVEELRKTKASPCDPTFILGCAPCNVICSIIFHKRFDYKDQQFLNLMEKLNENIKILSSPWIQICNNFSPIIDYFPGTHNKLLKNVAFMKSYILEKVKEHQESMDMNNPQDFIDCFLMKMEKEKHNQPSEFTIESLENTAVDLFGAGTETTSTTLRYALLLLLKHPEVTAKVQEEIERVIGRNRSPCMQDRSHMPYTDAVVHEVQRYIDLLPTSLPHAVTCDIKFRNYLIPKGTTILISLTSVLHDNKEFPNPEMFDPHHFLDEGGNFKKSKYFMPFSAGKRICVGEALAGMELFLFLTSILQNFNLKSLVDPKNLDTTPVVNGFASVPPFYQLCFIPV
# Experimental: as §2
# CYP3A4(BFC) = CYP3A4(BFC) (Homo sapiens, UniProt P08684); test: CYP3A4 inhibition (substrate BFC); assay type: in vitro ADME; settings: read-out: Cyp IC50 (μM) 3A4(BFC)
# CYP3A4(BFC), sequence (P08684 whole entry): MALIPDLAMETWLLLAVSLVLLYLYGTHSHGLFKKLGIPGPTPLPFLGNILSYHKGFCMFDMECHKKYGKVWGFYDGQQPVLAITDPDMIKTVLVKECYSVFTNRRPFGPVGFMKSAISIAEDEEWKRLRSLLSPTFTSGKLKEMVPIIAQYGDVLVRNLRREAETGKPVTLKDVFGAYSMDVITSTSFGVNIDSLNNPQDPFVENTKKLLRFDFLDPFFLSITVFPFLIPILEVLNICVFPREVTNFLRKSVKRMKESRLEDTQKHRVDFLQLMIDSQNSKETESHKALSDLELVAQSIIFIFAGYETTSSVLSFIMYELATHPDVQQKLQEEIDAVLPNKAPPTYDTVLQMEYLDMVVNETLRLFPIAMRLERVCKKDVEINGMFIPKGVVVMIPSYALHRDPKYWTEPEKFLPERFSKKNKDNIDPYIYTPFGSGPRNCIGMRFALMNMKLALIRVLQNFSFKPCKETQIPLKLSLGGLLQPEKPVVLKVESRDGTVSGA
# Experimental: as §2
# B-Raf = B-Raf (Homo sapiens, UniProt P15056); test: B-Raf kinase activity assay (AlphaScreen, biotin-MEK1 substrate); settings: 100 μM ATP, 100 nM biotin-MEK1, 45 minutes at room temperature; read-out: Biochemical activity (IC50 μM) B-Raf
# B-Raf, sequence (P15056 whole entry): as the sequence (P15056 whole entry V600E) above, with E600V counted along it
# In short: as §1
# CYP2D6 = CYP2D6 (Homo sapiens, UniProt P10635); test: CYP2D6 inhibition (fluorescent substrate AMMC); assay type: in vitro ADME; settings: read-out: Cyp IC50 (μM) 2D6
# CYP2D6, sequence (P10635 whole entry): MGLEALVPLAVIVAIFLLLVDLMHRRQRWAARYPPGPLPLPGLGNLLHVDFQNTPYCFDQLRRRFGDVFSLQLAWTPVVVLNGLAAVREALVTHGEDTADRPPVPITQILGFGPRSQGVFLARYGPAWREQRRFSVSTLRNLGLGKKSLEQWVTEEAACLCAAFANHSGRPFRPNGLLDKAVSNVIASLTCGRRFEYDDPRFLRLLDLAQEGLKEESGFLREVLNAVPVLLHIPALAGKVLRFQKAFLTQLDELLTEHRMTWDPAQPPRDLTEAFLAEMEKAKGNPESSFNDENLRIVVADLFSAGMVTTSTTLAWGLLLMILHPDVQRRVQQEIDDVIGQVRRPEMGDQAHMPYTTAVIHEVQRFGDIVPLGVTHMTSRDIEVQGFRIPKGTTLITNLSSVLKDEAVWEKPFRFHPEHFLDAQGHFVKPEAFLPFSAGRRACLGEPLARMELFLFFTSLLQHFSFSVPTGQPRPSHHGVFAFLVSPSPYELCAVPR
# Experimental: as §2
# CYP1A2 = molecular target: T1, CYP1A2 (Homo sapiens, UniProt P05177); test: CYP1A2 inhibition (fluorescent substrate CEC); assay type: in vitro ADME; settings: read-out: Cyp IC50 (μM) 1A2
# T1 sequence (P05177 1-516): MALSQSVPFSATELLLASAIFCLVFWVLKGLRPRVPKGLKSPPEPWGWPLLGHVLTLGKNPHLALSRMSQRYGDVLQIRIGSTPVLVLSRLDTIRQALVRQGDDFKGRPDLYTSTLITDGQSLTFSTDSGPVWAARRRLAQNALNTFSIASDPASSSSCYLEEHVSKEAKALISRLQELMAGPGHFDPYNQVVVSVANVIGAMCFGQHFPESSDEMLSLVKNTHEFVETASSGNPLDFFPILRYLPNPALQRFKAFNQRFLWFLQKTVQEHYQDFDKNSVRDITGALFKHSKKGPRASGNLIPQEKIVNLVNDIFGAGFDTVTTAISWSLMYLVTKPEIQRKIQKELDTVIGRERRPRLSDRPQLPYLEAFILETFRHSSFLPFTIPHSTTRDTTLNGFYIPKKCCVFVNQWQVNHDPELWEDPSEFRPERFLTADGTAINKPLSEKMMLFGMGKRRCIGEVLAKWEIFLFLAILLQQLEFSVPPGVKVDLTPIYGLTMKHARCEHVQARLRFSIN
# Experimental: as §2
# c-Raf-1, sequence (P04049 whole entry Y340D/Y341D, form open): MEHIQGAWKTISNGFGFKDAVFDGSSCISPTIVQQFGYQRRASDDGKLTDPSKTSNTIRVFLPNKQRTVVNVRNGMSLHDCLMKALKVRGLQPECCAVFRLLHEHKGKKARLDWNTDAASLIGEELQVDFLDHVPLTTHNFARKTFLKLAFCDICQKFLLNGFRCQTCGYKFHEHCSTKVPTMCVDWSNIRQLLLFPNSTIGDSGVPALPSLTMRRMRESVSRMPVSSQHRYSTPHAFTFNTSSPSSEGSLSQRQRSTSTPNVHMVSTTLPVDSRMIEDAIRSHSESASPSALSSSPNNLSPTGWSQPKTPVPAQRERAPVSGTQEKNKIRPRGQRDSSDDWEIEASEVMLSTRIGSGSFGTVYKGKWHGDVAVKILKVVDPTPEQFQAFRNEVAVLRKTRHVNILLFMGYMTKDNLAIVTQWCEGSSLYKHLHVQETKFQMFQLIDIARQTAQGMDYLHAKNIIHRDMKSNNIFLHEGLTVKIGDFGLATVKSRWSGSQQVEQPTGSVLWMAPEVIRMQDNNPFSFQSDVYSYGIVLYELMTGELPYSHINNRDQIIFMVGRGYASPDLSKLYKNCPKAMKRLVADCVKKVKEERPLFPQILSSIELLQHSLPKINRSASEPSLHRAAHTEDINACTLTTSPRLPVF
IC50 (c-Raf-1),IC50 (CYP2C19),IC50 (B-Raf V600E),IC50 (CYP2C9),IC50 (CYP3A4(BFC)),IC50 (B-Raf),IC50 (CYP2D6),IC50 (CYP1A2),SMILES
< 0.1 µM,5 to 10 µM,< 0.1 µM,> 10 µM,> 10 µM,< 0.1 µM,> 10 µM,> 10 µM,"CCCS(=O)(=O)Nc1ccc(F)c(C(=O)c2c[nH]c3ncc(-c4ccc5ncsc5c4)cc23)c1F [P-0020, Propane-1-sulfonic acid [3-(5-benzothiazol-6-yl-1H-pyrrolo[2,3-b]pyridine-3-carbonyl)-2,4-difluoro-phenyl]-amide]"
< 0.1 µM,< 5 µM,< 0.1 µM,< 5 µM,> 10 µM,< 0.1 µM,> 10 µM,> 10 µM,"CCCS(=O)(=O)Nc1ccc(F)c(C(=O)c2c[nH]c3ncc(-c4ccc5[nH]ncc5c4)cc23)c1F [P-0001, propane-1-sulfonic acid {2,4-difluoro-3-[5-(1H-indazol-5-yl)-1H-pyrrolo[2,3-b]pyridine-3-carbonyl]-phenyl}-amide]"
< 0.1 µM,> 10 µM,< 0.1 µM,> 10 µM,> 10 µM,< 0.1 µM,> 10 µM,> 10 µM,"CCCS(=O)(=O)Nc1ccc(F)c(C(=O)c2c[nH]c3ncc(-c4cnn(C5CCNCC5)c4)cc23)c1F [P-1002, Propane-1-sulfonic acid {2,4-difluoro-3-[5-(1-piperidin-4-yl-1H-pyrazol-4-yl)-1H-pyrrolo[2,3-b]pyridine-3-carbonyl]-phenyl}-amide]"
< 0.1 µM,> 10 µM,< 0.1 µM,< 5 µM,> 10 µM,< 0.1 µM,> 10 µM,> 10 µM,"CCCS(=O)(=O)Nc1ccc(F)c(C(=O)c2c[nH]c3ncc(-c4csc(-n5ccnc5C)n4)cc23)c1F [P-1101, Propane-1-sulfonic acid (2,4-difluoro-3-{5-[2-(2-methyl-imidazol-1-yl)-thiazol-4-yl]-1H-pyrrolo[2,3-b]pyridine-3-carbonyl}-phenyl)-amide]"
< 0.1 µM,< 5 µM,< 0.1 µM,< 5 µM,> 10 µM,< 0.1 µM,> 10 µM,> 10 µM,"CC(=O)n1cc(C(=O)c2c(F)ccc(NS(=O)(=O)c3cc(F)ccc3F)c2F)c2cc(-c3ccc4c(cnn4C(C)=O)c3)cnc21 [P-0004, N-{3-[1-Acetyl-5-(1-acetyl-1H-indazol-5-yl)-1H-pyrrolo[2,3-b]pyridine-3-carbonyl]-2,4-difluoro-phenyl}-2,5-difluoro-benzenesulfonamide]"
< 0.1 µM,> 10 µM,< 0.1 µM,> 10 µM,> 10 µM,< 0.1 µM,> 10 µM,> 10 µM,"CCCS(=O)(=O)Nc1ccc(F)c(C(=O)c2c[nH]c3ncc(-c4ccc5nn(C)cc5c4)cc23)c1F [P-0010, Propane-1-sulfonic acid {2,4-difluoro-3-[5-(2-methyl-2H-indazol-5-yl)-1H-pyrrolo[2,3-b]pyridine-3-carbonyl]-phenyl}-amide]"
< 0.1 µM,> 10 µM,< 0.1 µM,5 to 10 µM,> 10 µM,< 0.1 µM,> 10 µM,> 10 µM,"CCCS(=O)(=O)Nc1ccc(F)c(C(=O)c2c[nH]c3ncc(-c4ccc5cncnc5c4)cc23)c1F [P-0025, Propane-1-sulfonic acid [2,4-difluoro-3-(5-quinazolin-7-yl-1H-pyrrolo[2,3-b]pyridine-3-carbonyl)-phenyl]-amide]"
